From ChEMBL document CHEMBL4261580, “Novel antitumor compound optimized from natural saponin Albiziabioside A induced caspase-dependent apoptosis and ferroptosis as a p53 activator through the mitochondrial pathway” (Eur J Med Chem, 2018)
pIC50: −log10 of the molar value.

Experiments:
Type in all cases: functional, cell-based
A549 = assay: Antiproliferative activity against human A549 cells after 72 hrs by MTT assay; conditions: A549, 72 h
MCF7 = assay: Antiproliferative activity against human MCF7 cells after 72 hrs by MTT assay; conditions: MCF7, 72 h
HCT-116 = assay: Antiproliferative activity against human HCT116 cells after 72 hrs by MTT assay; conditions: HCT-116, 72 h
HepG2 = assay: Antiproliferative activity against human HepG2 cells after 72 hrs by MTT assay; conditions: HepG2, 72 h
MGC-803 = assay: Antiproliferative activity against human MGC803 cells after 72 hrs by MTT assay; conditions: MGC-803, 72 h

SMILES | pIC50 (A549) | pIC50 (MCF7) | pIC50 (HCT-116) | pIC50 (HepG2) | pIC50 (MGC-803)
CC(=O)N[C@H]1[C@H](O[C@H]2CC[C@]3(C)[C@H]4CC=C5[C@@H]6CC(C)(C)CC[C@]6(C(=O)OCc6cn(-c7ccccc7)nn6)CC[C@@]5(C)[C@]4(C)CC[C@H]3C2(C)C)O[C@H](CO[C@@H]2OC[C@H](O)[C@H](O)[C@@H]2O)[C@@H](O)[C@@H]1O | 5.00 | 4.66 | 4.60 | 4.74 | 4.71
CC(=O)N[C@H]1[C@H](O[C@H]2CC[C@]3(C)[C@H]4CC=C5[C@@H]6CC(C)(C)CC[C@]6(C(=O)OCc6cn(-c7cccc(Cl)c7)nn6)CC[C@@]5(C)[C@]4(C)CC[C@H]3C2(C)C)O[C@H](CO[C@@H]2OC[C@H](O)[C@H](O)[C@@H]2O)[C@@H](O)[C@@H]1O | 5.11 | 4.73 | 4.94 | 5.09 | 4.96
CC(=O)N[C@H]1[C@H](O[C@H]2CC[C@]3(C)[C@H]4CC=C5[C@@H]6CC(C)(C)CC[C@]6(C(=O)OCc6cn(-c7ccccc7C)nn6)CC[C@@]5(C)[C@]4(C)CC[C@H]3C2(C)C)O[C@H](CO[C@@H]2OC[C@H](O)[C@H](O)[C@@H]2O)[C@@H](O)[C@@H]1O | 4.20 | 4.06 | 4.96 | 4.29 | 4.24
CC(=O)N[C@H]1[C@H](O[C@H]2CC[C@]3(C)[C@H]4CC=C5[C@@H]6CC(C)(C)CC[C@]6(C(=O)OCc6cn(-c7cccc(C)c7)nn6)CC[C@@]5(C)[C@]4(C)CC[C@H]3C2(C)C)O[C@H](CO[C@@H]2OC[C@H](O)[C@H](O)[C@@H]2O)[C@@H](O)[C@@H]1O | 4.84 | 4.69 | 5.15 | 4.98 | 4.96
O=c1[nH]cc(F)c(=O)[nH]1 [FLUOROURACIL] | 4.15 | – | 4.42 | 4.32 | 4.51
CC(=O)N[C@H]1[C@H](O[C@H]2CC[C@]3(C)[C@H]4CC=C5[C@@H]6CC(C)(C)CC[C@]6(C(=O)OCc6cn(-c7ccccc7OC(F)(F)F)nn6)CC[C@@]5(C)[C@]4(C)CC[C@H]3C2(C)C)O[C@H](CO[C@@H]2OC[C@H](O)[C@H](O)[C@@H]2O)[C@@H](O)[C@@H]1O | 4.82 | 4.49 | 4.42 | 4.50 | 4.43
CC(=O)N[C@H]1[C@H](O[C@H]2CC[C@]3(C)[C@H]4CC=C5[C@@H]6CC(C)(C)CC[C@]6(C(=O)OCc6cn(-c7cccc(C#N)c7)nn6)CC[C@@]5(C)[C@]4(C)CC[C@H]3C2(C)C)O[C@H](CO[C@@H]2OC[C@H](O)[C@H](O)[C@@H]2O)[C@@H](O)[C@@H]1O | 4.53 | 4.56 | 4.57 | 4.56 | 4.54
COc1cccc(-n2cc(COC(=O)[C@]34CCC(C)(C)C[C@H]3C3=CC[C@@H]5[C@@]6(C)CC[C@H](O[C@@H]7O[C@H](CO[C@@H]8OC[C@H](O)[C@H](O)[C@@H]8O)[C@@H](O)[C@H](O)[C@H]7NC(C)=O)C(C)(C)[C@@H]6CC[C@@]5(C)[C@]3(C)CC4)nn2)c1 | 4.88 | 4.68 | 4.91 | 5.19 | 4.94
CC(=O)N[C@H]1[C@H](O[C@H]2CC[C@]3(C)[C@H]4CC=C5[C@@H]6CC(C)(C)CC[C@]6(C(=O)OCc6cn(-c7ccc(C)cc7C)nn6)CC[C@@]5(C)[C@]4(C)CC[C@H]3C2(C)C)O[C@H](CO[C@@H]2OC[C@H](O)[C@H](O)[C@@H]2O)[C@@H](O)[C@@H]1O | 4.37 | 4.35 | 4.32 | 4.39 | 4.33
CC(=O)N[C@H]1[C@H](O[C@H]2CC[C@]3(C)[C@H]4CC=C5[C@@H]6CC(C)(C)CC[C@]6(C(=O)OCc6cn(-c7ccc(C(C)=O)cc7)nn6)CC[C@@]5(C)[C@]4(C)CC[C@H]3C2(C)C)O[C@H](CO[C@@H]2OC[C@H](O)[C@H](O)[C@@H]2O)[C@@H](O)[C@@H]1O | 4.85 | 4.83 | 4.89 | 4.94 | 4.77
CC(=O)N[C@H]1[C@H](O[C@H]2CC[C@]3(C)[C@H]4CC=C5[C@@H]6CC(C)(C)CC[C@]6(C(=O)OCc6cn(-c7ccc(Cl)cc7Cl)nn6)CC[C@@]5(C)[C@]4(C)CC[C@H]3C2(C)C)O[C@H](CO[C@@H]2OC[C@H](O)[C@H](O)[C@@H]2O)[C@@H](O)[C@@H]1O | 4.44 | 4.54 | 4.41 | 4.49 | 4.50
